This is an account of results in patent US8796268B2, “Heteroaryls and uses thereof” (Millennium Pharmaceuticals, Inc., priority 2010, dated 2014).

Holding throughout (type): biochemical
The target of assay [1] is T1, Human PI3K alpha (Homo sapiens, UniProt P42336).
T1 construct: His (N); host or cells: SF9 insect cells (baculovirus)
Description: Human PI3K alpha enzyme assay (HTRF). To be noted: concentration not given, b1387 states 1.1 μM for PI3K α and β; for inhibition at 1.1 µM: read-out: p110 alpha Percent Inhibition.

The target of assay [2] is T2, Human PI3K beta (Homo sapiens, UniProt P42338).
T2 construct: His (N); host or cells: SF9 insect cells (baculovirus)
T2 sequence (P42338 whole entry): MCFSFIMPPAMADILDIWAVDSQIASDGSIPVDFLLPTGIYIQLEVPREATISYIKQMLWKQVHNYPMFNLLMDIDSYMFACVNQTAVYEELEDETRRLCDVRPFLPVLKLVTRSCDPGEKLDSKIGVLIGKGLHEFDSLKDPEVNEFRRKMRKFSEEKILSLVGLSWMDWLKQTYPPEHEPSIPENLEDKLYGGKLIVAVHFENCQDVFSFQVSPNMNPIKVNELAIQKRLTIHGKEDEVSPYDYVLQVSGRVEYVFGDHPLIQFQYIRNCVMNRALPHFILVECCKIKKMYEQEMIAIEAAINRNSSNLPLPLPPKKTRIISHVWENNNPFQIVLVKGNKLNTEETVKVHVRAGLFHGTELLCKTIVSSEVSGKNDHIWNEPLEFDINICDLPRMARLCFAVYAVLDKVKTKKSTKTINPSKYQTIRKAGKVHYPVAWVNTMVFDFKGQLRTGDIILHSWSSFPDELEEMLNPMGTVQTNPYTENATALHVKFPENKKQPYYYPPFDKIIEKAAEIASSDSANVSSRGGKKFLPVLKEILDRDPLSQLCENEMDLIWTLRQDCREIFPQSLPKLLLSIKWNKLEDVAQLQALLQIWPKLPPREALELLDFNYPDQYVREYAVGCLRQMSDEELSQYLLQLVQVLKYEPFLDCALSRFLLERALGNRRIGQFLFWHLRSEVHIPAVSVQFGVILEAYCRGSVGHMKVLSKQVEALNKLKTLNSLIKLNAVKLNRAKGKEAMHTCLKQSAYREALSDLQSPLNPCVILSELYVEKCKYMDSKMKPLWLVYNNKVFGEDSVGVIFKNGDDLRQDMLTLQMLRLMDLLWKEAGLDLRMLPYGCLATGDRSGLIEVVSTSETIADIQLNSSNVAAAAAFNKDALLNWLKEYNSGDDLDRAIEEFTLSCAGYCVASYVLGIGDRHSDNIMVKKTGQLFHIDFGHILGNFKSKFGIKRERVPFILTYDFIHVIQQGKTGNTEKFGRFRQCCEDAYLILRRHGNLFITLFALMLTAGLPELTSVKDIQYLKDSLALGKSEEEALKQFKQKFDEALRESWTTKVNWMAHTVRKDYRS
T2 sequence (P27986 whole entry partner): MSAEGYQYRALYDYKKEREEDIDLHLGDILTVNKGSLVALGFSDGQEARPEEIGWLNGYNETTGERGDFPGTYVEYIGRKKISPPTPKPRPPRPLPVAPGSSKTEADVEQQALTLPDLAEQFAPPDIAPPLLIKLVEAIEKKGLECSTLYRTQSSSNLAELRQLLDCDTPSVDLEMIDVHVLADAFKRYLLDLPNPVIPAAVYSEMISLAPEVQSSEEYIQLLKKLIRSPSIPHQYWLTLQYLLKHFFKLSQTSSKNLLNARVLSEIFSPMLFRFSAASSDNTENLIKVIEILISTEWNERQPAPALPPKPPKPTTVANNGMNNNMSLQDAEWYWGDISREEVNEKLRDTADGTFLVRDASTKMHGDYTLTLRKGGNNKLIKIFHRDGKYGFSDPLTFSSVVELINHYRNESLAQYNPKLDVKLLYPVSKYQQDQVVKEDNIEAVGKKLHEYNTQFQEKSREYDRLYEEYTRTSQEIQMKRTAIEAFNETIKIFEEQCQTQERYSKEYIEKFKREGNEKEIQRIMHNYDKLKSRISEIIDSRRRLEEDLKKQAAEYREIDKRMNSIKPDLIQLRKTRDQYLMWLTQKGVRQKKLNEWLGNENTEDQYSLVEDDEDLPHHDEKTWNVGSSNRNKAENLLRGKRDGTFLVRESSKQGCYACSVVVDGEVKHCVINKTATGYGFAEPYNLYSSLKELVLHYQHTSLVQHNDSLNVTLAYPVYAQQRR
Description: Human PI3K beta enzyme assay (HTRF). To be noted: concentration not given, b1387 states 1.1 μM for PI3K α and β; for inhibition at 1.1 µM: read-out: p110 beta Percent Inhibition. The procedure, abridged: (§1)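 Compounds were mixed with 25 uM ATP, then with 3.5 uM di-C8 PI(4,5)P2 and His-tagged PI3K isoform (β 5.25 nM, δ 0.75 nM, γ 5 nM) at pH 7.00. After 30 min at room temperature, EDTA stopped the reaction and PIP3 was measured by HTRF over 1 h.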
(Time-resolved FRET reads energy transfer from a long-lived donor to a nearby acceptor.)

Assay [3] addresses T3, Human PI3K delta (Homo sapiens, UniProt O00329).
T3 construct: His (N); host or cells: SF9 insect cells (baculovirus)
Description: Human PI3K delta enzyme assay (HTRF). To be noted: concentration not given, b1389 states 1.0 μM for PI3K δ and γ; for inhibition at 1 µM: read-out: p110 delta Percent Inhibition. In a few lines: as §1

Assay [4] has as its target T4, Human PI3K gamma (Homo sapiens, UniProt P48736).
T4 construct: His (N); host or cells: SF9 insect cells (baculovirus)
Description: Human PI3K gamma enzyme assay (HTRF). To be noted: concentration not given, b1389 states 1.0 μM for PI3K δ and γ; for inhibition at 1 µM: read-out: p110 gamma Percent Inhibition. In a few lines:
as §1

T1 sequence (P42336 whole entry): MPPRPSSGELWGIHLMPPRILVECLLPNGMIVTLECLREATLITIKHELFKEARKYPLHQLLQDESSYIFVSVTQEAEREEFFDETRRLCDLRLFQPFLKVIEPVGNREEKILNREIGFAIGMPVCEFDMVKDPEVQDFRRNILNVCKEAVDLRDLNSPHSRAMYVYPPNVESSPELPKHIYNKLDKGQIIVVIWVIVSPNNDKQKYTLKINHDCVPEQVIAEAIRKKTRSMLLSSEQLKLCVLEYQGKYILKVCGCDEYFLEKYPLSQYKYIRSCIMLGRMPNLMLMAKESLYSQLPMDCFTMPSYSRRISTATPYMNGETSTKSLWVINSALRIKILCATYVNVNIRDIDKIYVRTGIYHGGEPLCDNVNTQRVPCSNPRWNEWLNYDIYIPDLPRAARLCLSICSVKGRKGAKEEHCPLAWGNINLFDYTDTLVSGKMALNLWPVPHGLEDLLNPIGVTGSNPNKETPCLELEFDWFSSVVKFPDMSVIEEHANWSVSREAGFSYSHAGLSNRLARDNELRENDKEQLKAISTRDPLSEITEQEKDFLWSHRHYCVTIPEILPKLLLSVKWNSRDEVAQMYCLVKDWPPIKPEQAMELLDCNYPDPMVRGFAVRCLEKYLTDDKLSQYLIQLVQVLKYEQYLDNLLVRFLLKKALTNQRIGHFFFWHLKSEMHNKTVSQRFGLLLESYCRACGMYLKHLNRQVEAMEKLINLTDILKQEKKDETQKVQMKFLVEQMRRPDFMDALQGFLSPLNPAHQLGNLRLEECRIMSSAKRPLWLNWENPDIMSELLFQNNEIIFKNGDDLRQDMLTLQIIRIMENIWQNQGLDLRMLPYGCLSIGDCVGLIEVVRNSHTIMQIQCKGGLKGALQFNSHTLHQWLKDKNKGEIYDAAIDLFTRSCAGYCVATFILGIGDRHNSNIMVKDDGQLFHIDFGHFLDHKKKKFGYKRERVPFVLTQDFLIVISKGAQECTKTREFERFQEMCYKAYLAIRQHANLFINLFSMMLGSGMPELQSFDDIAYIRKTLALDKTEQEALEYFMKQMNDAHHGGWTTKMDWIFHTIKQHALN
T1 sequence (P27986 whole entry partner): as the sequence (P27986 whole entry partner) above
T3 sequence (O00329 whole entry): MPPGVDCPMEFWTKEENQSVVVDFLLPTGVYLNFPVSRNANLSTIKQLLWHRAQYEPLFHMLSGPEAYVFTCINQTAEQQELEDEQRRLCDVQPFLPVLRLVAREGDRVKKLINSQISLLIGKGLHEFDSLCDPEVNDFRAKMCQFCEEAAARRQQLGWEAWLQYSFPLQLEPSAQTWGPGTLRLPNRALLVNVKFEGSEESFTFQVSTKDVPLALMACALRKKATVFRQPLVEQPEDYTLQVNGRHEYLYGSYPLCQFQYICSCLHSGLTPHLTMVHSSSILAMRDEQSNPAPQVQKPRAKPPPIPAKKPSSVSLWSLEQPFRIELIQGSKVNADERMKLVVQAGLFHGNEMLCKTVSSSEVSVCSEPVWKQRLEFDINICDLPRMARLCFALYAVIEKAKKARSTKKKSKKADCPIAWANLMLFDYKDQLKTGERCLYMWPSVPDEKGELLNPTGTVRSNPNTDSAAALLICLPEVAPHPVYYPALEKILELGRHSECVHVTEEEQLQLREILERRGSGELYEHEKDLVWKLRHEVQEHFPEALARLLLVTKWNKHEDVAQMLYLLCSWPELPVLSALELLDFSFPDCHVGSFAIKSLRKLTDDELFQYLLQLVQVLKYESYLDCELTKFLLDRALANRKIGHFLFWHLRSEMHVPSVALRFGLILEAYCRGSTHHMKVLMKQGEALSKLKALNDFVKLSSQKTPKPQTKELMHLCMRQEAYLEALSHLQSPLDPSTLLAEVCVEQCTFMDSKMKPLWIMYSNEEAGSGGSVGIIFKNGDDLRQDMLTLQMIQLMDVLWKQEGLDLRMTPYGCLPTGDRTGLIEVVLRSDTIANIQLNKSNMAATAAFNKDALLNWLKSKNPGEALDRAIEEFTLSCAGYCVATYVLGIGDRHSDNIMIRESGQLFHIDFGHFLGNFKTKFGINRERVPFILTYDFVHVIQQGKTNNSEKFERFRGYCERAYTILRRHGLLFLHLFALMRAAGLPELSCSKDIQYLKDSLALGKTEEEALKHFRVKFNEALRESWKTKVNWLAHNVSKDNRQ
T3 sequence (P27986 whole entry partner): as the sequence (P27986 whole entry partner) above
T4 sequence (P48736 whole entry): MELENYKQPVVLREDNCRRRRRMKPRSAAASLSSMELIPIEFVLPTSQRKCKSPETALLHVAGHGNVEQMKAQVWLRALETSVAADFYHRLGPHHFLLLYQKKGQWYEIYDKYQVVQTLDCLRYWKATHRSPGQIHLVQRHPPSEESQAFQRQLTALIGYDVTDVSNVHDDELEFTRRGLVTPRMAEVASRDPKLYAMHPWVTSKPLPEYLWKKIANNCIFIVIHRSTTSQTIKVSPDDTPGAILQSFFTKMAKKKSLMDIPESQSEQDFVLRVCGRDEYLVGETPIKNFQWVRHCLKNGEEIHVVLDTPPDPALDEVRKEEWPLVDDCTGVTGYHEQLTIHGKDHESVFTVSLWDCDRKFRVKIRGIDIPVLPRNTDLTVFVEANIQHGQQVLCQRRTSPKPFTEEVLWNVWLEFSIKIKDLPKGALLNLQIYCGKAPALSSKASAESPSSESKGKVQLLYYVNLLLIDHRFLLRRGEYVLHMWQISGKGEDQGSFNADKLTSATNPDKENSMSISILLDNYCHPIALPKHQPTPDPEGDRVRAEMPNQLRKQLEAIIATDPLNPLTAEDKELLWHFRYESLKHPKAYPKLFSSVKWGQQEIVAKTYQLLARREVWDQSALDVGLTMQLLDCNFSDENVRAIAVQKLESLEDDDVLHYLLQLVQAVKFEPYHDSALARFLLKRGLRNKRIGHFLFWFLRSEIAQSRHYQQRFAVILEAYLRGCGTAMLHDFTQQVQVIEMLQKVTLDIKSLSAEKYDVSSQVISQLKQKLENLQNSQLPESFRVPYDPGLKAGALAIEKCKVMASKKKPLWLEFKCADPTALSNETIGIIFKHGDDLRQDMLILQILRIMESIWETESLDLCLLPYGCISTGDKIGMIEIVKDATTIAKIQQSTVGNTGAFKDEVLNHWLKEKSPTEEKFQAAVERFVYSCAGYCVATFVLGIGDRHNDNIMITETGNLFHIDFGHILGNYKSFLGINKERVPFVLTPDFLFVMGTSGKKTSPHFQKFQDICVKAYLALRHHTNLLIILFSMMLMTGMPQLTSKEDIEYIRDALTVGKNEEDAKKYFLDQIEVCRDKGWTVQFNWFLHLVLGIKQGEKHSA

Turning to `COc1cc(C(O)c2cc(-c3ccnnc3)sc2-c2nnc[nH]2)c(F)cc1Cl` (centres unmarked) [Compound 282], the values for the inhibition at 1.1 µM in assay [1] and in assay [2] were 14% and 99%, respectively. Moreover, in assay [3], the “p110 delta Percent Inhibition” value was determined as 64%. Also, the “p110 gamma Percent Inhibition” value in assay [4] is listed as 21%.

In the case of `CC(=O)Nc1cc(-c2nc(C(O)c3ccc(Cl)cc3)c(-c3nnc[nH]3)s2)ccn1` (centres unmarked) [Compound 238], the results for the inhibition at 1.1 µM in assay [1] and in assay [2] were 72% and 88%, respectively. The results for the inhibition at 1 µM in assay [3] and in assay [4] were 96% and 11%, respectively.

`Clc1cccc(Cc2nc(-c3ccncc3)sc2-c2nnc[nH]2)c1` [Compound 137]: the figures for the inhibition at 1.1 µM in assay [1] and in assay [2] were 12% and 54%, respectively. The inhibition at 1 µM was found to be 30% in assay [3] and 12% in assay [4].

With `COCC(c1ccc2ccccc2c1)c1c(C(=O)O)sc(N2CCOCC2)c1C#N` (centres unmarked) [Compound 306], the inhibition at 1.1 µM in assay [1] was 81%; in assay [2], 109%. The results for the inhibition at 1 µM in assay [3] and in assay [4] were 108% and 51%, respectively.

For the compound `CNC1CN(C(c2ccc(Cl)cc2)c2cc(-c3ccnc(NC(C)=O)c3)sc2-c2nnc[nH]2)C1` (centres unmarked) [Compound 170], the inhibition at 1.1 µM in assay [1] was 84%; in assay [2], 106%. The inhibition at 1 µM in assay [3] worked out at 105%; in assay [4], 26%.

For the compound `OC(c1cccc(-c2ccncc2)c1)c1cc(-c2ccncc2)sc1-c1nnc[nH]1` (centres unmarked) [Compound 258], the inhibition at 1.1 µM in assay [1] turned out to be 18%; in assay [2], 86%. The inhibition at 1 µM was determined as 47% in assay [3] and 13% in assay [4].

Take `O=C(O)c1sc(N2CCOCC2)nc1Cc1ccc2c(F)cccc2c1` [Compound 340]: the inhibition at 1.1 µM in assay [1] worked out at 48%; in assay [2], 113%. Moreover, the figures for the inhibition at 1 µM in assay [3] and in assay [4] were 104% and 59%, respectively.

Turning to `COC(=O)Nc1cc(-c2cc(C(c3ccc(Cl)cc3)N3CCNCC3)c(-c3nnc[nH]3)s2)ccn1` (centres unmarked) [Compound 152], the inhibition at 1.1 µM worked out at 61% in assay [1] and 97% in assay [2]. For the same compound, the figures for the inhibition at 1 µM in assay [3] and in assay [4] were 106% and 16%, respectively.

For the compound `OC(c1cccc(C(F)(F)F)c1)c1cc(-c2ccncc2)sc1-c1nnc[nH]1` (centres unmarked) [Compound 159], the inhibition at 1.1 µM in assay [1] turned out to be 18%; in assay [2], 61%. For the same compound, the results for the inhibition at 1 µM in assay [3] and in assay [4] were 31% and 5%, respectively.

Consider `CC(=O)Nc1cc(-c2cc(C(c3ccc(Cl)cc3)N3CCC[C@H]3CO)c(-c3nnc[nH]3)s2)ccn1` (single isomer, unassigned) [Compound 192], for which, in assay [1], the “p110 alpha Percent Inhibition” value is 48%. Further, the “p110 beta Percent Inhibition” value in assay [2] worked out at 90%. Further, the “p110 delta Percent Inhibition” value in assay [3] was 100%. The “p110 gamma Percent Inhibition” value in assay [4] was 12%.

For `COc1ccc2cc(Cc3nc(N4CCOCC4)sc3C(=O)O)ccc2c1` [Compound 288], the inhibition at 1.1 µM in assay [1] worked out at 14%; in assay [2], 85%. The inhibition at 1 µM came out at 76% in assay [3] and 19% in assay [4].

As to `N#Cc1c(N2CCOCC2)sc(C(=O)O)c1C(CCO)c1ccc2ccccc2c1` (centres unmarked) [Compound 363], the “p110 alpha Percent Inhibition” value in assay [1] was determined as 99%. The “p110 beta Percent Inhibition” value in assay [2] came to 113%. The “p110 delta Percent Inhibition” value in assay [3] is listed as 106%. The “p110 gamma Percent Inhibition” value in assay [4] is recorded as 65%.

With `CN[C@@H]1CCN(C(c2ccc(Cl)cc2)c2cc(-c3ccnc(NC(C)=O)c3)sc2-c2nnc[nH]2)C1` (some centres unmarked) [Compound 209], the inhibition at 1.1 µM in assay [1] amounted to 92%; in assay [2] it was 107%. Besides, the inhibition at 1 µM in assay [3] was 108%; in assay [4] it was 34%.

Take `N#Cc1c(N2CCOCC2)sc(C(=O)O)c1C(N)c1ccc2ccccc2c1` (centres unmarked) [Compound 357]: the inhibition at 1.1 µM in assay [1] was found to be 89%; in assay [2], 110%. Besides, the inhibition at 1 µM in assay [3] stood at 110%; in assay [4], 79%.

With `CC(=O)Nc1cc(-c2cc(C(c3ccc(Cl)cc3)N3CC[C@@H](O)C3)c(-c3nnc[nH]3)s2)ccn1` (some centres unmarked) [Compound 212], the inhibition at 1.1 µM in assay [1] was 87%; in assay [2], 109%. In addition, the inhibition at 1 µM in assay [3] amounted to 112%; in assay [4], 38%.

Consider `COc1cc(C(O)c2cc(-c3ccnc(C)c3)sc2-c2nnc[nH]2)c(F)cc1Cl` (centres unmarked) [Compound 265], for which the “p110 alpha Percent Inhibition” value in assay [1] came to 64%. Moreover, the “p110 beta Percent Inhibition” value in assay [2] was determined as 109%. In addition, the “p110 delta Percent Inhibition” value in assay [3] is listed as 111%. In addition, the “p110 gamma Percent Inhibition” value in assay [4] came out at 64%.

Take `NS(=O)(=O)c1sc(N2CCOCC2)nc1Cc1ccc2ccccc2c1` [Compound 329, 2-morpholino-4-(naphthalen-2-ylmethyl)thiazole-5-sulfonamide]: the inhibition at 1.1 µM in assay [1] was found to be 39%; in assay [2] it was 112%. The inhibition at 1 µM was found to be 80% in assay [3] and 29% in assay [4].

As for `CC(c1ccc2cc(F)ccc2c1)c1c(C(=O)O)sc(N2CCOCC2)c1C#N` (centres unmarked) [Compound 369], the “p110 alpha Percent Inhibition” value in assay [1] is 109%. Further, the “p110 beta Percent Inhibition” value in assay [2] came out at 115%. In assay [3], the “p110 delta Percent Inhibition” value amounted to 109%. Also, in assay [4], the “p110 gamma Percent Inhibition” value is reported as 65%.

In the case of `OC(c1ccc(-c2cccnc2)cc1)c1cc(-c2ccncc2)sc1-c1nnc[nH]1` (centres unmarked) [Compound 214], the results for the inhibition at 1.1 µM in assay [1] and in assay [2] were 46% and 84%, respectively. The inhibition at 1 µM in assay [3] is 46%; in assay [4], 14%.

As for `COc1ccc(C(O)c2cc(-c3ccncc3)sc2-c2nnc[nH]2)cc1OC` (centres unmarked) [Compound 246], the inhibition at 1.1 µM is 15% in assay [1] and 81% in assay [2]. Moreover, the figures for the inhibition at 1 µM in assay [3] and in assay [4] were 43% and 8%, respectively.

On to `CC(=O)Nc1cc(-c2cc(C(c3ccc(Cl)cc3)N3CCC(F)(F)CC3)c(-c3nnc[nH]3)s2)ccn1` (centres unmarked) [Compound 221], for which the inhibition at 1.1 µM in assay [1] worked out at 62%; in assay [2] it was 94%. Moreover, the inhibition at 1 µM in assay [3] turned out to be 100%; in assay [4], 8%.

For `CC(C)C(c1ccc(Cl)cc1)c1nc(N2CCOCC2)sc1C(=O)O` (centres unmarked) [Compound 304], the inhibition at 1.1 µM in assay [1] is 6%; in assay [2], 25%. The inhibition at 1 µM came out at 32% in assay [3] and 7% in assay [4].

On to `OC(c1ccc(F)cc1Cl)c1cc(-c2ccncc2)sc1-c1nnc[nH]1` (centres unmarked) [Compound 187], for which the results for the inhibition at 1.1 µM in assay [1] and in assay [2] were 32% and 95%, respectively. For the same compound, the inhibition at 1 µM in assay [3] is 77%; in assay [4], 25%.

As for `OC(c1ccc2ncccc2c1)c1cc(-c2ccncc2)sc1-c1nnc[nH]1` (centres unmarked) [Compound 257], the inhibition at 1.1 µM in assay [1] turned out to be 31%; in assay [2] it was 97%. The inhibition at 1 µM was found to be 68% in assay [3] and 30% in assay [4].

Consider `CC(=O)Nc1cc(-c2cc(C(c3ccc(Cl)cc3)N3CCCC3)c(-c3nnc[nH]3)s2)ccn1` (centres unmarked) [Compound 230], for which the inhibition at 1.1 µM came out at 57% in assay [1] and 93% in assay [2]. Moreover, the inhibition at 1 µM was 102% in assay [3] and 29% in assay [4].

As to `Clc1ccc(Cc2nc(N3CCOCC3)sc2Cc2nnn[nH]2)cc1Cl` [Compound 350, 4-(5-((1H-tetrazol-5-yl)methyl)-4-(3,4-dichlorobenzyl)thiazol-2-yl)morpholine], the inhibition at 1.1 µM is 6% in assay [1] and 58% in assay [2]. Moreover, the inhibition at 1 µM in assay [3] was 41%; in assay [4], 3%.

`NC(=O)c1sc(N2CCOCC2)nc1Cc1ccc2ccccc2c1` [Compound 334]: the inhibition at 1.1 µM in assay [1] is 21%; in assay [2], 103%. Moreover, the inhibition at 1 µM turned out to be 101% in assay [3] and 12% in assay [4].

As for `CC(=O)Nc1cc(-c2sc(-c3nnc[nH]3)c(C(O)c3ccc(Cl)cc3)c2C#N)ccn1` (centres unmarked) [Compound 165], the inhibition at 1.1 µM turned out to be 64% in assay [1] and 77% in assay [2]. For the same compound, the inhibition at 1 µM in assay [3] is 87%; in assay [4], 14%.

Turning to `CC(=O)Nc1cc(-c2cc([C@H](c3ccc(Cl)cc3)N(C)C)c(-c3nnc[nH]3)s2)ccn1` (single isomer, unassigned) [Compound 261], the inhibition at 1.1 µM came out at 79% in assay [1] and 113% in assay [2]. Further, the inhibition at 1 µM came out at 105% in assay [3] and 33% in assay [4].

Take `OC(c1ccc2ccccc2c1)c1cc(-c2ccncc2)sc1-c1nnc[nH]1` (centres unmarked) [Compound 280]: the inhibition at 1.1 µM in assay [1] is 35%; in assay [2], 106%. Further, the inhibition at 1 µM in assay [3] worked out at 92%; in assay [4], 34%.

As for `N#Cc1c(N2CCOCC2)sc(C(=O)O)c1C(CCF)c1ccc2ccccc2c1` (centres unmarked) [Compound 365], the “p110 alpha Percent Inhibition” value in assay [1] was found to be 105%. Also, the “p110 beta Percent Inhibition” value in assay [2] is 117%. Besides, the “p110 delta Percent Inhibition” value in assay [3] is 112%. Also, the “p110 gamma Percent Inhibition” value in assay [4] was found to be 63%.

In the case of `N#Cc1c(N2CCOCC2)sc(C(=O)O)c1Cc1cc2ccc(Cl)cc2[nH]1` [Compound 359], the inhibition at 1.1 µM in assay [1] amounted to 90%; in assay [2], 109%. Moreover, the values for the inhibition at 1 µM in assay [3] and in assay [4] were 102% and 64%, respectively.
